One data set concerns MCF7. The experiment in a line: Cytotoxicity against human MCF7 cells after 6 days by MTT method. Type of data set: functional, cell-based. The conditions noted are these: MCF7, 144 h. On the technique in general: Formazan colour is commonly taken as a measure of viable cells.
For another data set, the system named is MDA-MB-435. The experiment in a line: Cytotoxicity against human MDA-MB-435 after 6 days by MTT method. The format is functional, cell-based. The conditions noted are these: MDA-MB-435, 144 h.
A further data set deals with HepG2. The experiment in a line: Cytotoxicity against human HepG2 after 6 days by MTT method. Type of data set: functional, cell-based. The conditions noted are these: HepG2, 144 h.
The next data set deals with PC-3. The experiment in a line: Cytotoxicity against human PC3 cells after 6 days by MTT method. The conditions noted are these: PC-3, 144 h. Type of data set: functional, cell-based.
In another data set the test system is Artemia salina. The experiment in a line: Toxicity in Artemia salina. Type of data set: organism-based. The conditions noted are these: in vivo.
Another data set concerns HeLa. The experiment in a line: Cytotoxicity against human HeLa cells after 6 days by MTT method. Type of data set: functional, cell-based. Particulars: 144 h.
In another data set the test system is Staphylococcus aureus. The experiment in a line: Antimicrobial activity against Staphylococcus aureus ATCC 27154 at 50 ug/ml. Type of data set: functional, organism-based.
Another data set has as its system Escherichia coli. The experiment in a line: Antimicrobial activity against Escherichia coli ATCC 25922 at 50 ug/ml. The format is functional, organism-based.
For another data set, the system named is Sarcina ventriculi. The experiment in a line: Antimicrobial activity against Sarcina ventriculi ATCC 29068 at 50 ug/ml. Type of data set: functional.
The subject of the next data set is Pseudomonas aeruginosa. The experiment in a line: Antimicrobial activity against Pseudomonas aeruginosa ATCC 25668 at 50 ug/ml. The format is functional, organism-based.
A further data set deals with Candida albicans. The experiment in a line: Antimicrobial activity against Candida albicans ATCC 10231 at 50 ug/ml. Type of data set: functional, organism-based.
The test system of the next data set is Aspergillus niger. The experiment in a line: Antimicrobial activity against Aspergillus niger ATCC 13496 at 50 ug/ml. The format is functional, organism-based.

This is an account of results in ChEMBL document CHEMBL1781885, “Cytotoxic norsesquiterpene peroxides from the endophytic fungus Talaromyces flavus isolated from the mangrove plant Sonneratia apetala” (J Nat Prod, 2011).

Molecules are shown by their SMILES. Values after ≈ are worked out from the molar mass of the structure shown. Active and inactive are the calls of the source. The calls are words filed in the database; no cut-off is given here.

Take `COc1cccc2c1C(=O)c1c(O)c3c(c(O)c1C2=O)C[C@@](O)(C(=O)CO)C[C@@H]3O[C@H]1C[C@H](N)[C@@H](O)[C@H](C)O1` [EPIRUBICIN]: the concentration for half-maximal inhibition (IC50) (as a rule, the concentration that inhibits the measured activity by half) with MCF7 was found to be 0.56 µg/mL (≈ 1.03 µM); in the data set on MDA-MB-435, 0.33 µg/mL (≈ 0.607 µM); in the data set with HepG2 it was 0.56 µg/mL (≈ 1.03 µM); in the data set on PC-3 it was 0.16 µg/mL (≈ 0.294 µM).

Molecule `CC1(C)CCC(=O)[C@@]2(C)OO[C@@H]3C[C@@]12CC[C@H]3O` [MERULIN A] registered an LD50 in the data set on Artemia salina of less than 10 ppm. The half-maximal inhibitory concentration (IC50) in the data set on MCF7 came out at 4.17 µg/mL (≈ 16.4 µM); in the data set with MDA-MB-435, 1.9 µg/mL (≈ 7.47 µM); in the data set on HepG2, 6.79 µg/mL (≈ 26.7 µM); in the data set on HeLa it was 7.97 µg/mL (≈ 31.3 µM); in the data set with PC-3, 1.82 µg/mL (≈ 7.16 µM). Further, the outcome in the data set with Staphylococcus aureus, with Escherichia coli, in the data set on Sarcina ventriculi, in the data set on Pseudomonas aeruginosa, in the data set on Candida albicans and in the data set on Aspergillus niger was inactive.

Turning to `CC(=O)O[C@H]1CC[C@]23C[C@@H]1OO[C@]2(C)C(=O)CCC3(C)C` [TALAPEROXIDE A], in the data set on Artemia salina, the LD50 is listed as less than 10 ppm. The IC50 stood at 19.8 µg/mL (≈ 66.7 µM) in the data set on MCF7; 11.8 µg/mL (≈ 39.7 µM) in the data set on MDA-MB-435; 12.9 µg/mL (≈ 43.6 µM) in the data set on HepG2; 13.7 µg/mL (≈ 46.2 µM) in the data set with HeLa; 5.7 µg/mL (≈ 19.2 µM) in the data set on PC-3. Moreover, the result in the data set on Staphylococcus aureus, in the data set on Escherichia coli, in the data set on Sarcina ventriculi, in the data set with Pseudomonas aeruginosa, in the data set on Candida albicans and with Aspergillus niger was inactive.

In the case of `CC(=O)O[C@H]1CC[C@]23C[C@@H]1OO[C@@]2(C)C(=O)CCC3(C)C` [TALAPEROXIDE B], the LD50 in the data set with Artemia salina is listed as less than 10 ppm. Moreover, the IC50 stood at 1.33 µg/mL (≈ 4.49 µM) with MCF7; 2.78 µg/mL (≈ 9.38 µM) in the data set with MDA-MB-435; 1.29 µg/mL (≈ 4.35 µM) in the data set on HepG2; 1.73 µg/mL (≈ 5.84 µM) in the data set on HeLa; 0.89 µg/mL (≈ 3 µM) with PC-3. Further, the result with Staphylococcus aureus, in the data set with Escherichia coli, in the data set with Sarcina ventriculi, in the data set with Pseudomonas aeruginosa, with Candida albicans and in the data set on Aspergillus niger was inactive.

In the case of `CC1(C)CCC(=O)[C@@]2(C)OO[C@H]3C[C@]12CCC3=O` [TALAPEROXIDE C], the LD50 in the data set with Artemia salina is listed as less than 10 ppm. The IC50 was 6.63 µg/mL (≈ 26.3 µM) with MCF7; 2.64 µg/mL (≈ 10.5 µM) in the data set with MDA-MB-435; 15.1 µg/mL (≈ 59.9 µM) in the data set on HepG2; 12.7 µg/mL (≈ 50.4 µM) in the data set with HeLa; 4.34 µg/mL (≈ 17.2 µM) in the data set with PC-3. The outcome in the data set on Staphylococcus aureus, with Escherichia coli, in the data set with Sarcina ventriculi, with Pseudomonas aeruginosa, with Candida albicans and in the data set on Aspergillus niger was inactive.

Molecule `CC1(C)CCC(=O)[C@]2(C)OO[C@H]3C[C@]12CCC3=O` [TALAPEROXIDE D] had an LD50 in the data set with Artemia salina of less than 10 ppm. The IC50 with MCF7 turned out to be 1.92 µg/mL (≈ 7.61 µM); with MDA-MB-435, 0.91 µg/mL (≈ 3.61 µM); with HepG2, 0.9 µg/mL (≈ 3.57 µM); in the data set with HeLa it was 1.31 µg/mL (≈ 5.19 µM); in the data set on PC-3, 0.7 µg/mL (≈ 2.77 µM). Besides, the outcome with Staphylococcus aureus, with Escherichia coli, in the data set on Sarcina ventriculi, in the data set with Pseudomonas aeruginosa, in the data set with Candida albicans and with Aspergillus niger was inactive.
